The text below walks through data of patent publication US9403877B2, “Peptide agents for cancer therapy” (INTER-K PTY LIMITED, priority 2012, dated 2016).

The subject of one test is HT29 cells. The test is described as follows: Uptake of FITC-labelled peptide by confocal microscopy. It counts as cell-based, human. The settings on record: serum-free culture, after 24 hours, compared to FITC alone. Here is the method:
The ability of 10 Ala to cross the plasma membrane of HT29 cells was assessed by means of confocal microscopy of cells exposed to 10Ala conjugated to fluorosceine isothiocyanate (FITC) under serum-free culture conditions. The peptide used in this study comprised the sequence KRAKAKAAAAR (SEQ ID No. 25) (identified as FITC-K10(4)Ala) with an extra lysine residue at the amino terminus (to which the FITC label is attached). […] A microphotograph showing localization of the FITC-labelled peptide to the cytoplasm of cells compared to cells treated with FITC alone is shown in FIG. 9.

Test [1] deals with HT29 colon cancer cells. Put plainly: In vitro growth inhibition MTT assay, HT29. The class given is cell-based, human. The note with it: for Inhibition of HT29 cell growth/proliferation (MTT), in words: serum-free medium, 72 hours, peptide 50 nM-100 μM, compared with RSKAKNPLYR or 10Ala. Here is the method: (§1) The human colon cancer cell line HT29, ovarian cancer cell line A2780, breast cancer cell lines MCF-7 and MDA468, and a prostate cancer cell line (DU145) were used for in vitro studies. The cell lines were cultured at 37° C., under air containing 5% CO2 and passaged regularly for optimal growth. Cells were maintained in DMEM medium containing 10% fetal bovine serum. All culture medium preparations were further supplemented with penicillin/streptomycin (100 μg/ml), and
(§2) 1.2 In Vitro Growth Inhibition MTT Assay
Cells in logarithmic growth were transferred to 96-well plates in 100 μl of serum-containing medium at a density of 4000 cells per well. […] […] Growth-inhibitory effects were evaluated by MTT (3-[4,5-dimethylthiazol-2-yl]2,5-diphenyl-tetrazolium bromide) cell growth assay and absorbance was read at 540 nm. Growth of control cells was exponential during the whole incubation period. Mean surviving fractions±SEM values (minimum of 3 separate experiments) were determined for each peptide/cisplatin concentration.
A general note: Tetrazolium assays rely on reduction of a dye to a coloured formazan, in cell work by metabolically active cells.

Another test concerns colon cancer cells. The settings on record: PCT/AU2010/000203; cited from earlier work.
The subject of test [2] is prostate (DU145) cancer cell line. The test is described as follows: In vitro growth inhibition MTT assay, DU145, serum-free. The settings on record: 72 hours. The class given is cell-based, human. The protocol: as §1, §2
(§3) Cells in logarithmic growth were transferred to 96-well plates in 100 μl of serum-containing medium at a density of 4000 cells per well. After 24 hours the previously added serum-containing medium was removed and 200 μl serum free medium (SFM) with or without peptide was added to each of triplicate wells. Drug exposure experiments were carried out on cell lines using varying concentrations of peptides (50 nM-100 μM) and cells were exposed to peptides for 72 hours in serum-free culture medium. Growth-inhibitory effects were evaluated by MTT (3-[4,5-dimethylthiazol-2-yl]2,5-diphenyl-tetrazolium bromide) cell growth assay and absorbance was read at 540 nm. Growth of control cells was exponential during the whole incubation period. Mean surviving fractions±SEM values (minimum of 3 separate experiments) were determined for each peptide/cisplatin concentration.

Test [3] concerns breast (MCF-7) cancer cell line. The test is described as follows: In vitro growth inhibition MTT assay, MCF-7, serum-free. It counts as cell-based, human. The settings on record: 72 hours. The protocol: as §1, §2, §3
Test [4] concerns ovarian (A2780) cancer cell line. The test is described as follows: In vitro growth inhibition MTT assay, A2780, serum-free. It counts as cell-based, human. The settings on record: 72 hours. The protocol: as §1, §2, §3
The test system of test [5] is MDA468 breast cancer cells. The test is described as follows: Modified MTT assay, MDA468, 5% serum, 48 hours. It counts as cell-based, human. The note with it: for Growth inhibition of MDA468 breast cancer cells: concentrations of 0.5 μM or greater. Here is the method:
as §3
(§4) The growth inhibitory activity of various concentrations of the 10 RVK peptide (RVKVKVVVVR) (SEQ ID No. 24) with an 8 mer polyarginine sequence coupled to its C-terminal end (i.e., RVKVKVVVVRRRRRRRRR (SEQ ID No. 26), referred to herein as 10 RVK Arg) on MDA468 breast cancer cells was assessed by a modified form of the MTT assay described in Example 1.2 in which 3000 cells per well were cultured for 48 hours in culture medium containing 5% serum. For the negative control, an 8 mer polyargine peptide (8 Arg) was used. The results shown in FIG. 10 are the average of 3 replicate wells for each dosage.
(§5) The growth inhibitory activity of various concentrations of the 10 RVK Arg peptide on MDA468 breast cancer and DU145 prostate cancer cells was assessed by MTT assay involving incubating the cells in 5% serum containing medium for 48 hours as described in Example 2. As a comparison, inhibition of the growth of the cells by the 10 RVK peptide with a 7 mer polyarginine sequence coupled to its C-terminal end (i.e., RVKVKVVVVRRRRRRRR (SEQ ID No. 27), referred to herein as 10 RVK 7 Arg) and the 10 RVK peptide with an 8 mer polyargine sequence coupled to its N-terminal end (i.e., RRRRRRRRRVKVKVVVVR (SEQ ID No. 28), referred to herein as Arg 10 RVK) were also assessed. The results for inhibition of the breast cancer cells are shown in FIG. 11 while the results for treatment of the prostate cancer cells are shown in FIG. 12.

Test [6] concerns DU145 prostate cancer cells. The test is described as follows: Modified MTT assay, DU145, 5% serum, 48 hours. The class given is cell-based, human. The note with it: for Growth inhibition of DU145 prostate cancer cells: 5% serum, 48 hours, concentrations of 0.5 μM or greater. The protocol: as §3, §4, §5
Test [7] concerns HT29 colon cancer cells. The note with it: in vitro in the presence of serum, Agrez et al., 2011; cited from earlier work.

“Also recorded” adds a separate entry of the source. Where no end group is shown, it is not given here. The star is where a group is joined. FITC = O=C1OC2(c3ccc(O)cc3Oc3cc(O)ccc32)c2ccc(NC(=S)*)cc21

Regarding “FITC-KRAKAKAAAAR ({FITC}-KRAKAKAAAAR) [FITC-K10(4)Ala]”, in the test on HT29 cells, the “Internalization / localization of FITC-labelled peptide in cells” value is “cytoplasmic localization of peptide”. As to “KARARAAAAK (10Ala peptide in which the positions of one or both arginine and lysine residues have been inverted)”, the “Inhibition of HT29 cell growth/proliferation (MTT), in words” value with HT29 colon cancer cells [1] is on record as “significantly reduced the ability of the peptides to inhibit cell growth”. For the substance “KEKLKNPLFK (10-mer peptide from B2 integrin cytoplasmic domains) [10 mer peptide derived from the β2 integrin cytoplasmic domain]”, the “Inhibition of proliferation of colon cancer cells in vitro (previously reported)” value (“Inhibition … (previously reported)” for short) with colon cancer cells is recorded as “effective at inhibiting proliferation”. With “RAAKAARAAK (Scrambled peptide with Alanine in the place of all non-charged residues in peptide of sequence 2.) [scrambled alanine-substituted peptide]”, the “Inhibition of HT29 cell growth/proliferation (MTT), in words” value in the test with HT29 colon cancer cells [1] was “ineffective”. Still for that read-out and setting: the value for RAKAK (shorter variant of 10Ala) was “minimal effect”; that for “RAKAKAAAAAR (variant peptide of 10Ala having 5 alanine residues between the lysine and the C-terminal arginine)” was “significantly less effective at inhibiting growth”. Take RAKAKAAAAR (B6 derived peptide): the “Inhibition of DU145 cell growth” value in test [2] is “equally effective”. Further, in test [3], the “Inhibition of MCF-7 cell growth” value was “equally effective”. Besides, the “Growth inhibitory effect in serum-containing medium” value in the test on HT29 colon cancer cells [1] (serum-containing medium, data not shown) was “adversely affected”. Besides, the “Inhibition of HT29 cell growth/proliferation (MTT), in words” value with HT29 colon cancer cells [1] is “ability of both peptides to inhibit cell growth was similar”; in the test with HT29 colon cancer cells [1] (listed as 10Ala), “significantly more effective at inhibiting cell proliferation”. Moreover, the “Inhibition of A2780 cell growth” value in test [4] is given as “equally effective”. Take RAKAKAAAR (short variant of 10Ala): the “Inhibition of HT29 cell growth/proliferation (MTT), in words” value in the test with HT29 colon cancer cells [1] is reported as “minimal effect; also recorded: significantly less effective at inhibiting growth”. With “RAKARAAAAK (10Ala peptide wherein the position of one or both arginine and lysine residues have been inverted)”, the “Inhibition of HT29 cell growth/proliferation (MTT), in words” value in the test with HT29 colon cancer cells [1] is “significantly reduced the ability of the peptides to inhibit cell growth”. On to “RARAKNPLYK (10 mer peptide from B3 integrin cytoplasmic domain) [10 mer peptide derived from the β3 integrin cytoplasmic domain]”, for which, in the test on colon cancer cells, the “Inhibition … (previously reported)” value is reported as “effective at inhibiting proliferation”. Consider “RKKR (Charged residues for growth inhibitory effect)”, for which the “Inhibition of HT29 cell growth/proliferation (MTT), in words” value in the test with HT29 colon cancer cells [1] was “not sufficient to inhibit cancer cell proliferation in vitro to the same degree”. On to “RKRK (A scrambled version of the charged residues RKKR)”, for which the “Inhibition of HT29 cell growth/proliferation (MTT), in words” value in the test on HT29 colon cancer cells [1] is “significantly less effective at inhibiting growth of the cells”.

Turning to “RRRRRRRRRVKVKVVVVR (10 RVK peptide with an 8 mer polyargine sequence coupled ot its N-terminal end) [Arg 10 RVK]”, the “Growth inhibition of MDA468 breast cancer cells” value in [5] (5% serum, 48 hours) is “markedly inhibited growth”. In test [6], the “Growth inhibition of DU145 prostate cancer cells” value is “markedly inhibited growth”. In the case of “RSKAKNALYR (short variant of sequence 2, scrambled)”, the “Inhibition of HT29 cell growth/proliferation (MTT), in words” value with HT29 colon cancer cells [1] is listed as “not seen”. As to “RSKAKNPLAR (A short variant peptide of sequence 2)”, the “Inhibition of HT29 cell growth/proliferation (MTT), in words” value with HT29 colon cancer cells [1] is “not seen”. As for “RSKAKNPLYR (Non naturally occurring peptide derived from the B6 binding sequence)”, the “Growth inhibitory effect in the presence of serum (previously shown)” value in the test on HT29 colon cancer cells [7] was “adversely affected”. With “RSKAKR (SHORT VARIANT OF THE PEPTIDE FROM SEQUENCE 2)”, the “Inhibition of HT29 cell growth/proliferation (MTT), in words” value with HT29 colon cancer cells [1] is listed as “failed to inhibit proliferation”. “RSRARNPLYR (10 mer peptide from B5 integrin cytoplasmic domain) [10 mer peptide derived from the β5 integrin cytoplasmic domain]”: the “Inhibition … (previously reported)” value with colon cancer cells is listed as “effective at inhibiting proliferation”. On to “RVKVKVVVVRRRRRRRR (10RVK peptide with a 7 mer polyarginine sequence coupled to its C-terminal end) [10 RVK 7 Arg]”, for which the “Growth inhibition of MDA468 breast cancer cells” value in [5] (5% serum, 48 hours) was “markedly inhibited growth”. In addition, the “Growth inhibition of DU145 prostate cancer cells” value in test [6] is given as “markedly inhibited growth”. For the substance “RVKVKVVVVRRRRRRRRR (8 mer polyarginine sequence couple to the C-terminal end of 10 RVK peptide) [10 RVK Arg]”, the “Growth inhibitory activity on MDA468 compared to 10 RVK with penetratin coupled to its N-terminal” value in test [5] (5 μM to 10 μM, results not shown) is reported as “enhanced cell growth inhibitory activity”. Besides, in test [5] (5% serum, 48 hours, concentration 5 μM to 50 μM), the “Growth inhibition of MDA468 cells” value is “totally inhibited growth”. Moreover, in test [5] (5% serum, 48 hours), the “Growth inhibition of MDA468 breast cancer cells” value is on record as “markedly inhibited growth”. Besides, the “Growth inhibitory activity on DU145 compared to 10 RVK with penetratin coupled to its N-terminal” value in test [6] (10 μM to 50 μM, results not shown) was “enhanced cell growth inhibitory activity”. In [6], the “Growth inhibition of DU145 prostate cancer cells” value is given as “markedly inhibited growth”.
